Values quoted from earlier work as cited in patent US20240115678A1, “PERSONALIZED […] CANCER THERAPY” (priority 2022, published 2024).

How the values were obtained:
vascular cord formation = details: in vivo administration
S-180 sarcoma = details: parenteral administration
[1] = tested on: human xenografted glioma, overian, and neuroblastoma cells; details: immune deficient animals
[2] = tested on: hypoxia inducible factor (HIF)-1
[3] = tested on: rat PAIII androgen-independent syngeneic prostate cancer cell line; details: daily intraperitoneal for 30 days, evaluation at day 40
[4] = tested on: T cell, B cell and NK cells; details: high dose
[5] = tested on: battery of tumor cell lines; details: in vitro, combined with AA
[6] = tested on: neuroblastoma, bladder cancer, pancreatic cancer, mesothelioma, hepatoma cells; details: in vitro
HUVEC = details: in vitro
[7] = tested on: monocytes derived from human peripheral blood
[8] = tested on: murine TECs and normal ECs; details: with up-regulation of MDR1 mRNA
NK cells = details: animal experiments
ovarian cancer = details: whole trial

In the case of `O=C1O[C@H]([C@@H](O)CO)C(O)=C1O` [AA, ascorbic acid], the vascular cord formation (vascular cord formation) is listed as “suppressed vascular cord formation”, the “angiogenesis and pro-angiogenic factors bFGF, VEGF, and MMP-2” value (S-180 sarcoma) is listed as “suppression” and the tumor growth (S-180 sarcoma) is listed as “reduced tumor growth”. The “inhibition of xenografted cells” value [1] was “successful in vivo inhibition”, the “activation of HIF-1” value [2] was “suppresses activation” and the neovascularization (neovascularization) was “suppressing neovascularization”. The “pulmonary and lymphatic metastasis” value [3] was “reduction in pulmonary and lymphatic metastasis”, the tumor growth [3] was “significant inhibition of tumor growth” and the NK cytotoxic activity [4] was “inhibits”. For the same molecule, the IL-2 secretion ([4]; in vitro) was “inhibits”, the “T cell and B cell proliferative responses” value ([4]; in vitro) was “inhibits” and the “cytotoxicity of Docetaxel, Epirubicin, Irinotecan and 5-FU” value [5] was “Enhancement of cytotoxicity”. For the same molecule, the “T cell activating ability of dendritic cells” value (dendritic cells) was “inhibit”, the “cytotoxic effects on cancer cells” value [6] was “cytotoxic effects at pharmacologically achievable concentrations” and the HUVEC proliferation (HUVEC) was “inhibits”.

For `COc1cc2nccc(Oc3ccc(NC(=O)Nc4ccc(F)cc4F)c(F)c3)c2cc1OC` [Ki8751], the “tumor CM-induced MDR1 up-regulation” value (human microvascular ECs) is given as “blocked”.

In the case of `CCOCc1nc2c(N)nc3ccccc3c2n1CC(C)(C)O` [R-848], the “FcgammaRI, FcgammaRIIa, and the common gamma-subunit” value [7] is given as “upregulation”, the “inhibitory FcgammaRIIb molecule” value [7] is given as “profound downregulation” and the FcgammaR-mediated cytokine production ([7]; 12 hour exposure) is given as “increased”. For the same molecule, the “antibody-dependent cellular cytotoxicity by monocytes” value ([7]; 12 hour exposure) was “increased”.

In the case of `O=P1(N(CCCl)CCCl)NCCCO1` (stereo not drawn) [cyclophosphamide], the “effect on Treg cells” value (Treg cells) is listed as “inhibit Treg cells”.

For `Nc1ccn([C@@H]2O[C@H](CO)[C@@H](O)C2(F)F)c(=O)n1` [gemcitabine], the “effect on Treg cells” value (Treg cells) is listed as “inhibit Treg cells”.

For `CC(=O)O[C@H]1C(=O)[C@@]2(C)[C@H]([C@H](OC(=O)c3ccccc3)[C@]3(O)C[C@H](OC(=O)[C@H](O)[C@@H](NC(=O)c4ccccc4)c4ccccc4)C(C)=C1C3(C)C)[C@]1(OC(C)=O)CO[C@@H]1C[C@@H]2O` [paclitaxel], the “resistance of TECs compared with normal ECs” value [8] is given as “more resistant”.

For `CC(C)[C@]12O[C@H]1[C@@H]1O[C@]13[C@]1(O[C@H]1C[C@H]1C4=C(CC[C@@]13C)C(=O)OC4)[C@@H]2O` [triptolide], the “effect on Treg cells” value (Treg cells) is listed as “inhibit Treg cells”.

In the case of Poly (IC), the “effect on Herceptin activity” value (NK cells) is listed as “augmentation of Herceptin activity”.

In the case of arsenic trioxide, the “effect on Treg cells” value (Treg cells) is given as “inhibit Treg cells”.

In the case of “bevacizumab plus chemotherapy: Bevacizumab (Avastin), antibody which binds VEGF, given with chemotherapy”, the “median progression free survival (PFS)” value (ovarian cancer; ovarian cancer patients) is given as 6.8 months, the “median OS” value (ovarian cancer) is given as 16.6 months and the “HR for overall survival” value (ovarian cancer; versus chemotherapy alone, 95 percent CI: 0.69, 1.14) is given as 0.89.

B1: IL-12: stimulator of NK cells (protein, UniProt P29459 23-219; P29460 23-328, looked up)
Interleukin-12 subunit alpha: RNLPVATPDPGMFPCLHHSQNLLRAVSNMLQKARQTLEFYPCTSEEIDHEDITKDKTSTVEACLPLELTKNESCLNSRETSFITNGSCLASRKTSFMMALCLSSIYEDLKMYQVEFKTMNAKLLMDPKRQIFLDQNMLAVIDELMQALNFNSETVPQKSSLEEPDFYKTKIKLCILLHAFRIRAVTIDRVMSYLNAS
Interleukin-12 subunit beta: IWELKKDVYVVELDWYPDAPGEMVVLTCDTPEEDGITWTLDQSSEVLGSGKTLTIQVKEFGDAGQYTCHKGGEVLSHSLLLLHKKEDGIWSTDILKDQKEPKNKTFLRCEAKNYSGRFTCWWLTTISTDLTFSVKSSRGSSDPQGVTCGAATLSAERVRGDNKEYEYSVECQEDSACPAAEESLPIEVMVDAVHKLKYENYTSSFFIRDIIKPDPPKNLQLKPLKNSRQVEVSWEYPDTWSTPHSYFSLTFCVQVQGKSKREKKDRVFTDKTSATVICRKNASISVRAQDRYYSSSWSEWASVPCS
For B1, the “effect on Herceptin activity” value (NK cells) is listed as “augmentation of Herceptin activity”.
